Measured values from the OligoGym collection.
HELM strings list units from the 5' end as sugar, base in round brackets, then linkage (d deoxyribose, r ribose, m 2'-O-methyl, p phosphodiester). Strings are as the collection lists them; they lack the last nucleoside at the 3' end of the tested compound. [moe] = 2'-O-(2-methoxyethyl) (MOE); [sp] = phosphorothioate linkage; [m5C] = 5-methylcytosine

Molecular target: SCN2A
Assay: mouse, dose not given
Settings: ASO

| Substance | 3 h FOB score [score 0-7] |
| --- | --- |
| RNA1{[moe](T)[sp].[moe]([m5C])p.[moe](T)p.[moe](A)[sp].d(T)[sp].d(T)[sp].d(T)[sp].d(T)[sp].d(A)[sp].d(T)[sp].d(A)[sp].d(A)[sp].[moe](A)p.[moe](T)p.[moe](G)p.[moe]([m5C])[sp].[moe]([m5C])}$$$$ (last 3' nucleoside missing) | 1 |
| RNA1{[moe](G)[sp].[moe](A)p.[moe]([m5C])p.[moe]([m5C])p.d(A)[sp].d([m5C])[sp].d(G)[sp].d([m5C])[sp].d(T)[sp].d(T)[sp].d(A)[sp].d([m5C])[sp].d(A)[sp].d(T)[sp].[moe]([m5C])p.[moe](A)p.[moe](A)p.[moe](A)[sp].[moe]([m5C])}$$$$ (last 3' nucleoside missing) | 4 |
| RNA1{[moe]([m5C])[sp].[moe](A)p.[moe](T)p.[moe](A)p.[moe](A)p.[moe](T)p.d([m5C])[sp].d([m5C])[sp].d([m5C])[sp].d(A)[sp].d(T)[sp].d(T)[sp].d(A)[sp].d(T)[sp].d(A)[sp].d([m5C])[sp].[moe](A)p.[moe](A)[sp].[moe](A)}$$$$ (last 3' nucleoside missing) | 0 |
| RNA1{[moe](T)[sp].[moe](A)p.[moe](T)p.[moe](T)p.[moe](T)p.d(T)[sp].d(T)[sp].d([m5C])[sp].d(T)[sp].d(A)[sp].d([m5C])[sp].d(A)[sp].d([m5C])[sp].d(T)[sp].d(G)[sp].[moe]([m5C])p.[moe](T)p.[moe](G)[sp].[moe]([m5C])}$$$$ (last 3' nucleoside missing) | 2.67 |
| RNA1{[moe](A)[sp].[moe]([m5C])p.[moe](G)p.[moe](A)p.[moe]([m5C])p.d(A)[sp].d(T)[sp].d(A)[sp].d(T)[sp].d(T)[sp].d(T)[sp].d(T)[sp].d(T)[sp].d([m5C])[sp].d(T)[sp].[moe](A)p.[moe]([m5C])p.[moe](A)[sp].[moe]([m5C])}$$$$ (last 3' nucleoside missing) | 0 |
| RNA1{[moe](G)[sp].[moe](G)p.[moe](G)p.[moe](A)p.[moe](T)p.d(A)[sp].d(G)[sp].d(T)[sp].d(G)[sp].d([m5C])[sp].d(T)[sp].d([m5C])[sp].d([m5C])[sp].d(A)[sp].d(T)[sp].[moe](A)p.[moe](G)p.[moe]([m5C])[sp].[moe]([m5C])}$$$$ (last 3' nucleoside missing) | 1.33 |
| RNA1{[moe]([m5C])[sp].[moe]([m5C])p.[moe](A)p.[moe]([m5C])p.[moe](G)p.d(A)[sp].d([m5C])[sp].d(A)[sp].d(T)[sp].d(A)[sp].d(T)[sp].d(T)[sp].d(T)[sp].d(T)[sp].d(T)[sp].[moe]([m5C])p.[moe](T)p.[moe](A)[sp].[moe]([m5C])}$$$$ (last 3' nucleoside missing) | 0 |
| RNA1{[moe]([m5C])[sp].[moe](A)p.[moe](T)p.[moe](T)p.[moe](T)p.d([m5C])[sp].d(T)[sp].d(A)[sp].d(T)[sp].d(A)[sp].d(A)[sp].d([m5C])[sp].d(T)[sp].d([m5C])[sp].d(A)[sp].[moe](G)p.[moe]([m5C])p.[moe](A)[sp].[moe](A)}$$$$ (last 3' nucleoside missing) | 0 |
| RNA1{[moe](A)[sp].[moe](A)p.[moe](T)p.[moe](T)p.[moe]([m5C])p.[moe](T)p.d(A)[sp].d(T)[sp].d(T)[sp].d(T)[sp].d(T)[sp].d(A)[sp].d(T)[sp].d(A)[sp].d(A)[sp].d(A)[sp].[moe](T)p.[moe](G)[sp].[moe]([m5C])}$$$$ (last 3' nucleoside missing) | 0.33 |
| RNA1{[moe](T)[sp].[moe]([m5C])p.[moe](A)p.[moe](T)p.[moe](G)p.d([m5C])[sp].d(A)[sp].d(T)[sp].d(A)[sp].d(A)[sp].d(T)[sp].d([m5C])[sp].d([m5C])[sp].d([m5C])[sp].d(A)[sp].[moe](T)p.[moe](T)p.[moe](A)[sp].[moe](T)}$$$$ (last 3' nucleoside missing) | 0 |
| RNA1{[moe](A)[sp].[moe](G)p.[moe]([m5C])p.[moe](A)p.d(T)[sp].d(A)[sp].d(T)[sp].d(T)[sp].d([m5C])[sp].d(T)[sp].d(A)[sp].d(A)[sp].d([m5C])[sp].d(A)[sp].[moe](T)p.[moe](G)p.[moe](G)p.[moe](T)[sp].[moe]([m5C])}$$$$ (last 3' nucleoside missing) | 0 |
| RNA1{[moe](G)[sp].[moe](T)p.[moe]([m5C])p.[moe](T)p.[moe]([m5C])p.[moe](T)p.d(T)[sp].d(T)[sp].d([m5C])[sp].d(T)[sp].d(T)[sp].d(A)[sp].d(T)[sp].d(T)[sp].d(T)[sp].d([m5C])[sp].[moe](T)p.[moe](G)[sp].[moe](T)}$$$$ (last 3' nucleoside missing) | 1 |
| RNA1{[moe]([m5C])[sp].[moe](A)p.[moe](T)p.[moe](G)p.[moe]([m5C])p.d(A)[sp].d(T)[sp].d(A)[sp].d(A)[sp].d(T)[sp].d([m5C])[sp].d([m5C])[sp].d([m5C])[sp].d(A)[sp].d(T)[sp].[moe](T)p.[moe](A)p.[moe](T)[sp].[moe](A)}$$$$ (last 3' nucleoside missing) | 0 |
| RNA1{[moe](G)[sp].[moe]([m5C])p.[moe](A)p.[moe](T)[sp].d(G)[sp].d(T)[sp].d(A)[sp].d(A)[sp].d([m5C])[sp].d([m5C])[sp].d(T)[sp].d(T)[sp].[moe](T)p.[moe](A)p.[moe](T)p.[moe](A)[sp].[moe]([m5C])}$$$$ (last 3' nucleoside missing) | 0 |
| RNA1{[moe](A)[sp].[moe](T)p.[moe](A)p.[moe](T)p.d(T)[sp].d(T)[sp].d(T)[sp].d(T)[sp].d([m5C])[sp].d(T)[sp].d(A)[sp].d([m5C])[sp].d(A)[sp].d([m5C])[sp].[moe](T)p.[moe](G)p.[moe]([m5C])p.[moe](T)[sp].[moe](G)}$$$$ (last 3' nucleoside missing) | 1 |
| RNA1{[moe]([m5C])[sp].[moe]([m5C])p.[moe](A)p.[moe]([m5C])p.d(G)[sp].d([m5C])[sp].d(T)[sp].d(T)[sp].d(A)[sp].d([m5C])[sp].d(A)[sp].d(T)[sp].d([m5C])[sp].d(A)[sp].[moe](A)p.[moe](A)p.[moe]([m5C])p.[moe](A)[sp].[moe](T)}$$$$ (last 3' nucleoside missing) | 0 |
| RNA1{[moe](T)[sp].[moe](G)p.[moe]([m5C])p.[moe](A)p.[moe](T)p.d(A)[sp].d(A)[sp].d(T)[sp].d([m5C])[sp].d([m5C])[sp].d([m5C])[sp].d(A)[sp].d(T)[sp].d(T)[sp].d(A)[sp].[moe](T)p.[moe](A)p.[moe]([m5C])[sp].[moe](A)}$$$$ (last 3' nucleoside missing) | 0 |
| RNA1{[moe]([m5C])[sp].[moe]([m5C])p.[moe](G)p.[moe](A)p.[moe](A)p.[moe](T)p.d(T)[sp].d([m5C])[sp].d(T)[sp].d(A)[sp].d(T)[sp].d(T)[sp].d(T)[sp].d(T)[sp].d(A)[sp].d(T)[sp].[moe](A)p.[moe](A)[sp].[moe](A)}$$$$ (last 3' nucleoside missing) | 0 |
| RNA1{[moe](G)[sp].[moe]([m5C])p.[moe](A)p.[moe](T)p.[moe](G)p.d(T)[sp].d(A)[sp].d(A)[sp].d([m5C])[sp].d([m5C])[sp].d(T)[sp].d(T)[sp].d(T)[sp].d(A)[sp].d(T)[sp].[moe](A)p.[moe]([m5C])p.[moe](A)[sp].[moe](T)}$$$$ (last 3' nucleoside missing) | 0 |
| RNA1{[moe](A)[sp].[moe](T)p.[moe](T)p.[moe](T)p.d([m5C])[sp].d(T)[sp].d(A)[sp].d(T)[sp].d(A)[sp].d(A)[sp].d([m5C])[sp].d(T)[sp].d([m5C])[sp].d(A)[sp].[moe](G)p.[moe]([m5C])p.[moe](A)p.[moe](A)[sp].[moe]([m5C])}$$$$ (last 3' nucleoside missing) | 0 |
| RNA1{[moe](T)[sp].[moe](G)p.[moe](A)p.[moe]([m5C])p.[moe]([m5C])p.[moe](A)p.d([m5C])[sp].d(G)[sp].d([m5C])[sp].d(T)[sp].d(T)[sp].d(A)[sp].d([m5C])[sp].d(A)[sp].d(T)[sp].d([m5C])[sp].[moe](A)p.[moe](A)[sp].[moe](A)}$$$$ (last 3' nucleoside missing) | 1 |
| RNA1{[moe](T)[sp].[moe](G)p.[moe](G)p.[moe](A)p.[moe]([m5C])p.d([m5C])[sp].d(G)[sp].d(T)[sp].d([m5C])[sp].d(T)[sp].d([m5C])[sp].d(T)[sp].d(T)[sp].d(T)[sp].d([m5C])[sp].[moe](T)p.[moe](T)p.[moe](A)[sp].[moe](T)}$$$$ (last 3' nucleoside missing) | 1 |
| RNA1{[moe](A)[sp].[moe](T)p.[moe](G)p.[moe](T)p.[moe](A)p.[moe](A)p.d([m5C])[sp].d([m5C])[sp].d(T)[sp].d(T)[sp].d(T)[sp].d(A)[sp].d(T)[sp].d(A)[sp].d([m5C])[sp].d(A)[sp].[moe](T)p.[moe](T)[sp].[moe](T)}$$$$ (last 3' nucleoside missing) | 0 |
| RNA1{[moe](T)[sp].[moe](T)p.[moe]([m5C])p.[moe](T)p.d(A)[sp].d(T)[sp].d(T)[sp].d(T)[sp].d(T)[sp].d(A)[sp].d(T)[sp].d(A)[sp].d(A)[sp].d(A)[sp].[moe](T)p.[moe](G)p.[moe]([m5C])p.[moe]([m5C])[sp].[moe](G)}$$$$ (last 3' nucleoside missing) | 1 |
| RNA1{[moe](A)[sp].[moe]([m5C])p.[moe](A)p.[moe](T)p.[moe](A)p.[moe](T)p.d(T)[sp].d(T)[sp].d(T)[sp].d(T)[sp].d([m5C])[sp].d(T)[sp].d(A)[sp].d([m5C])[sp].d(A)[sp].d([m5C])[sp].[moe](T)p.[moe](G)[sp].[moe]([m5C])}$$$$ (last 3' nucleoside missing) | 0 |
| RNA1{[moe]([m5C])[sp].[moe](T)p.[moe](G)p.[moe]([m5C])p.d(A)[sp].d(T)[sp].d(G)[sp].d(T)[sp].d(A)[sp].d(A)[sp].d([m5C])[sp].d([m5C])[sp].d(T)[sp].d(T)[sp].[moe](T)p.[moe](A)p.[moe](T)p.[moe](A)[sp].[moe]([m5C])}$$$$ (last 3' nucleoside missing) | 0 |
